Measured values: ChEMBL document CHEMBL1141267, “Side-chain truncation of apicularen A by olefin cross-metathesis with ethylene” (J Nat Prod, 2007)
Calls of active or inactive are those of the source. The calls are words filed in the database; no cut-off is given here.

Assays:
L929 = test: Cytotoxicity against mouse L929 cells; format: functional, cell-based
[1] = Inhibition of tobacco hornworm V-ATPase; parameters: species or system Manduca sexta

SMILES | Activity (L929) | IC50 [1] [nM]
C=CC[C@H]1C[C@H]2C[C@H](O)C[C@H](Cc3cccc(O)c3C(=O)O1)O2 | inactive | –
CC/C=C\C=C/C(=O)N/C=C/C[C@H]1C[C@H]2C[C@H](O)C[C@H](Cc3cccc(O)c3C(=O)O1)O2 [APICULAREN A] | – | 20
